ChEMBL document CHEMBL4428084, “Discovery and Optimization of N-(4-(3-Aminophenyl)thiazol-2-yl)acetamide as a Novel Scaffold Active against Sensitive and Resistant Cancer Cells” (J Med Chem, 2016)

Columns and labels:
Format in all cases: functional
[1] = tested on: MIA PaCa-2; assay: Cytotoxicity against gemcitabine-resistant human MIAPaCa2 cells assessed as cell viability at 0.1 uM after 48 hrs by trypan blue exclusion assay relative to control; settings: MIA PaCa-2, 48 h, read-out: Activity
[2] = tested on: BXPC-3; assay: Cytotoxicity against gemcitabine-sensitive human BxPC3 cells assessed as cell viability at 0.1 uM after 48 hrs by trypan blue exclusion assay relative to control; settings: BXPC-3, 48 h, read-out: Activity
[3] = tested on: A-375; assay: Cytotoxicity against vemurafenib-sensitive human A375 cells assessed as cell viability at 10 uM after 48 hrs by trypan blue exclusion assay relative to control; settings: A-375, 48 h, read-out: Activity
[4] = tested on: MIA PaCa-2; assay: Cytotoxicity against gemcitabine-resistant human MIAPaCa2 cells assessed as cell viability at 10 uM after 48 hrs by trypan blue exclusion assay relative to control; settings: MIA PaCa-2, 48 h, read-out: Activity
[5] = tested on: BXPC-3; assay: Cytotoxicity against gemcitabine-sensitive human BxPC3 cells assessed as cell viability at 10 uM after 48 hrs by trypan blue exclusion assay relative to control; settings: BXPC-3, 48 h, read-out: Activity
[6] = Cytotoxicity against vemurafenib-resistant human A375 RIV cells assessed as cell viability at 10 uM after 48 hrs by trypan blue exclusion assay relative to control; settings: A-375, 48 h, read-out: Activity
[7] = Cytotoxicity against vemurafenib-resistant human A375 R5C3 cells assessed as cell viability at 10 uM after 48 hrs by trypan blue exclusion assay relative to control; settings: A-375, 48 h, read-out: Activity
[8] = tested on: K562; assay: Cytotoxicity against imatinib-resistant human K562 cells assessed as cell viability at 10 uM after 48 hrs by trypan blue exclusion assay relative to control; settings: K562, 48 h, read-out: Activity
[9] = tested on: K562; assay: Cytotoxicity against imatinib-sensitive human K562 cells assessed as cell viability at 10 uM after 48 hrs by trypan blue exclusion assay relative to control; settings: K562, 48 h, read-out: Activity
[10] = Cytotoxicity against vemurafenib-resistant human A375 RIV cells assessed as cell viability at 1 uM after 48 hrs by trypan blue exclusion assay relative to control; settings: A-375, 48 h, read-out: Activity

## Nc1ccn([C@@H]2O[C@H](CO)[C@@H](O)C2(F)F)c(=O)n1 [GEMCITABINE]
[1]
  viability at 0.1 µM: 86.5%
[2]
  viability at 0.1 µM: 2%

## CC(=O)Nc1nc(-c2cccc(NS(=O)(=O)c3ccc4c(c3)OCCO4)c2)cs1
[3]
  viability at 10 µM: 29.6%

## CC(=O)Nc1nc(-c2cccc(NS(=O)(=O)c3cccc4cccnc34)c2)cs1
[3]
  viability at 10 µM: 59.5%

## CC(=O)Nc1nc(-c2cccc(NS(=O)(=O)c3cccc4ccccc34)c2)cs1
[3]
  viability at 10 µM: 20.4%

## CC(=O)Nc1nc(-c2cccc(NS(=O)(=O)c3ccc4c(ccn4C)c3)c2)cs1
[3]
  viability at 10 µM: 46.5%

## CC(=O)Nc1nc(-c2cccc(NS(=O)(=O)c3cccc4c3ccn4C)c2)cs1
[3]
  viability at 10 µM: 60.7%

## CCc1ccc(S(=O)(=O)Nc2cccc(-c3csc(NC(C)=O)n3)c2)cc1
[4]
  viability at 10 µM: 40.7%
[5]
  viability at 10 µM: 21%
[6]
  viability at 10 µM: 26.7%
[3]
  viability at 10 µM: 7.5%
[7]
  viability at 10 µM: 80.1%
[8]
  viability at 10 µM: 27%
[9]
  viability at 10 µM: 12.8%

## CC(=O)Nc1nc(-c2cccc(NC(=O)c3ccco3)c2)cs1
[3]
  viability at 10 µM: 29.2%

## CCCCCCCC(=O)Nc1cccc(-c2csc(NC(C)=O)n2)c1
[3]
  viability at 10 µM: 40%

## CC(=O)Nc1nc(-c2cccc(NS(=O)(=O)c3ccc4ccccc4c3)c2)cs1
[4]
  viability at 10 µM: 7%
[5]
  viability at 10 µM: 0.6%
[6]
  viability at 10 µM: 33.3%
[3]
  viability at 10 µM: 3.3%
[7]
  viability at 10 µM: 49.6%
[8]
  viability at 10 µM: 25.6%
[9]
  viability at 10 µM: 31%

## CC(=O)Nc1nc(-c2cccc(NS(=O)(=O)c3ccc(C(C)(C)C)cc3)c2)cs1
[4]
  viability at 10 µM: < 1%
[5]
  viability at 10 µM: < 1%
[10]
  viability at 1 µM: 39.4%
[6]
  viability at 10 µM: < 1%
[3]
  viability at 10 µM: 1.5%
[7]
  viability at 10 µM: 51.1%
[8]
  viability at 10 µM: 35.1%
[9]
  viability at 10 µM: 19.4%

## CC(=O)Nc1nc(-c2cccc(NS(=O)(=O)c3ccc4c(c3)CCC4)c2)cs1
[3]
  viability at 10 µM: 26.3%

## CC(=O)Nc1nc(-c2cccc(NS(=O)(=O)c3ccc(I)cc3)c2)cs1
[4]
  viability at 10 µM: 15.8%
[5]
  viability at 10 µM: < 1%
[6]
  viability at 10 µM: 10%
[3]
  viability at 10 µM: < 1%
[7]
  viability at 10 µM: 8.4%
[8]
  viability at 10 µM: 27%
[9]
  viability at 10 µM: 15%

## CC(=O)Nc1nc(-c2cccc(NS(=O)(=O)c3cn(C)cn3)c2)cs1
[3]
  viability at 10 µM: 36.8%

## CCCCCc1ccc(S(=O)(=O)Nc2cccc(-c3csc(NC(C)=O)n3)c2)cc1
[4]
  viability at 10 µM: < 1%
[5]
  viability at 10 µM: < 1%
[10]
  viability at 1 µM: 27.7%
[6]
  viability at 10 µM: < 1%
[3]
  viability at 10 µM: 2.8%
[7]
  viability at 10 µM: 15.6%
[8]
  viability at 10 µM: 72.7%
[9]
  viability at 10 µM: 51%

## CC(=O)Nc1nc(-c2cccc(NS(=O)(=O)c3ccc4oc(=O)ccc4c3)c2)cs1
[3]
  viability at 10 µM: 65.5%

## CC(=O)Nc1nc(-c2cccc(NS(=O)(=O)c3ccc(-c4ccc(C)cc4)cc3)c2)cs1
[3]
  viability at 10 µM: 26.3%
